Source: patent publication US20230135635A1, “INHIBITORS OF ULK1/2 AND METHODS OF USING SAME” (SALK INSTITUTE FOR BIOLOGICAL STUDIES, priority 2020, published 2023)
pIC50: −log10 of the molar value.

Biological target: T1, recombinant human ULK1 protein (1-649) (Homo sapiens, UniProt O75385)
T1 construct: recombinant human ULK1 protein (1-649, SignalChem #U01-11G); purchased SignalChem U01-11G
T1 sequence (O75385 1-649): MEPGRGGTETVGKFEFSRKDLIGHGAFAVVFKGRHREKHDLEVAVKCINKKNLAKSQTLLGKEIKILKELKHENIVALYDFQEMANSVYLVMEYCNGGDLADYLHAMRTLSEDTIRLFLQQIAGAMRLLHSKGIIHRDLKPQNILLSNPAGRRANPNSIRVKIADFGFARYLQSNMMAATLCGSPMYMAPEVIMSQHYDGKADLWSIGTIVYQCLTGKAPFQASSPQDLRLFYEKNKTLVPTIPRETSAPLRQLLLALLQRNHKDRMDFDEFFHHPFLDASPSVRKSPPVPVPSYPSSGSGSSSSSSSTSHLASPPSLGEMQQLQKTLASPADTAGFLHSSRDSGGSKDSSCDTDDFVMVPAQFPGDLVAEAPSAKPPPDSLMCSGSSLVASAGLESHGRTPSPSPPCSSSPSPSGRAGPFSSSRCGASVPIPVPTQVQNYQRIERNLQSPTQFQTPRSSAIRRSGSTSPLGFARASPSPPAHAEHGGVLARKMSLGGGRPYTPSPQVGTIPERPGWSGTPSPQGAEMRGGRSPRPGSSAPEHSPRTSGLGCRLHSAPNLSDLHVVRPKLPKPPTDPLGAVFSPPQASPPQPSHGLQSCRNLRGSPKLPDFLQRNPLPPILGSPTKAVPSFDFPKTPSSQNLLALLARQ
Assay: ULK1 inhibition assay (ADP Glo)
Assay type: biochemical
Settings: Table 1; 25 uM ATP, MBP substrate, one hour
Procedure, shortened: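 Recombinant ULK1 (2 ug/mL) phosphorylated myelin basic protein (80 ug/mL) at 25 uM ATP; ADP formed was detected by ADP-Glo after 1 h. Compounds ran in triplicate, 16-dose 3-fold serial dilution from 30 uM, to give IC50.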

Row | Compound | pIC50
1 | FC(F)(F)c1cnc(Nc2ccc3c(c2)CN(C2COC2)CC3)nc1NC1CC1 [Compound A102] | 8.00 to 9.00
2 | O=C(NCCO)c1cnc(Nc2ccc3c(c2)CCNC3)nc1NC1CC1 [Compound A36] | < 8.00
3 | CNC(=O)c1ccccc1Nc1nc(Nc2ccc3c(c2)CN(C(=O)CN)CC3)ncc1Br [Compound A152, 2-{2-[2-(2-Amino-acetyl)-1,2,3,4-tetrahydro-isoquinolin-7-ylamino]-5-bromo-pyrimidin-4-ylamino}-N-methyl-benzamide] | < 8.00
4 | O=C(NCC(F)(F)F)c1cnc(Nc2ccc3c(c2)CCNC3)nc1NC1CC1 [Compound A38] | < 8.00
5 | CNC(=O)c1ccccc1Nc1nc(Nc2ccc3c(c2)CN(CCC(=O)O)CC3)ncc1Br [Compound A164, 3-{7-[5-Bromo-4-(2-methylcarbamoyl-phenylamino)-pyrimidin-2-ylamino]-3,4-dihydro-1H-isoquinolin-2-yl}-propionic acid] | < 8.00
6 | CNC(=O)c1ccccc1Nc1nc(Nc2ccc3c(c2)CCN(C(=O)N2CCN(C)CC2)C3)ncc1Br [Compound A128, 2-{5-Bromo-2-[2-(4-methyl-piperazine-1-carbonyl)-1,2,3,4-tetrahydro-isoquinolin-6-ylamino]-pyrimidin-4-ylamino}-N-methyl-benzamide] | < 8.00
7 | CC(C)(C)OC(=O)NCCC(=O)N1CCc2cc(Nc3ncc(C(F)(F)F)c(NC4CC4)n3)ccc2C1 [Compound A29] | > 9.00
8 | O=S(=O)(C1CC1)N1CCc2cc(Nc3ncc(C(F)(F)F)c(NC4CC4)n3)ccc2C1 [Compound A116] | 8.00 to 9.00
9 | CNC(=O)c1ccccc1Nc1nc(Nc2ccc3c(c2)CN(C(=O)CCC(=O)O)CC3)ncc1Br [Compound A156, 4-{7-[5-Bromo-4-(2-methylcarbamoyl-phenylamino)-pyrimidin-2-ylamino]-3,4-dihydro-1H-isoquinolin-2-yl}-4-oxo-butyric acid] | < 8.00
10 | CCN(CC)C(=O)N1CCc2cc(Nc3ncc(C(F)(F)F)c(NC4CC4)n3)ccc2C1 [Compound A10] | 8.00 to 9.00
11 | CNC(=O)c1ccccc1Nc1nc(Nc2ccc3c(c2)CN(CCN)CC3)ncc1Br [Compound A151, 2-{2-[2-(2-Amino-ethyl)-1,2,3,4-tetrahydro-isoquinolin-7-ylamino]-5-bromo-pyrimidin-4-ylamino}-N-methyl-benzamide] | < 8.00
12 | O=C(O)CCC(=O)N1CCc2cc(Nc3ncc(C(F)(F)F)c(NC4CC4)n3)ccc2C1 [Compound A20] | > 9.00
13 | CNC(=O)c1ccccc1Nc1nc(Nc2ccc3c(c2)CN(Cc2ccccn2)CC3)ncc1Br [Compound A163, 2-[5-Bromo-2-(2-pyridin-2-ylmethyl-1,2,3,4-tetrahydro-isoquinolin-7-ylamino)-pyrimidin-4-ylamino]-N-methyl-benzamide] | < 8.00
14 | O=C(O)c1cnc(Nc2ccc3c(c2)CCNC3)nc1NC1CC1 [Compound A85] | < 8.00
15 | CNC(=O)c1ccccc1Nc1nc(Nc2ccc3c(c2)CCN(CCC(=O)O)C3)ncc1Br [Compound A141, 3-{6-[5-Bromo-4-(2-methylcarbamoyl-phenylamino)-pyrimidin-2-ylamino]-3,4-dihydro-1H-isoquinolin-2-yl}-propionic acid] | < 8.00
16 | CNC(=O)c1ccccc1Nc1nc(Nc2ccc3c(c2)CC[N+](C)(C)C3)ncc1Br [Compound A143, 6-[5-Bromo-4-(2-methylcarbamoyl-phenylamino)-pyrimidin-2-ylamino]-2,2-dimethyl-1,2,3,4-tetrahydro-isoquinolinium; iodide] | < 8.00

Row | Compound | pIC50
17 | CNC(=O)c1ccccc1Nc1nc(Nc2ccc3c(c2)CCN(CC(=O)N2CCOCC2)C3)ncc1Br [Compound A127, 2-{5-Bromo-2-[2-(2-morpholin-4-yl-2-oxo-ethyl)-1,2,3,4-tetrahydro-isoquinolin-6-ylamino]-pyrimidin-4-ylamino}-N-methyl-benzamide] | < 8.00
18 | CNCC(=O)N1CCc2ccc(Nc3ncc(Br)c(Nc4ccccc4C(=O)NC)n3)cc2C1 [Compound A153, 2-{5-Bromo-2-[2-(2-methylamino-acetyl)-1,2,3,4-tetrahydro-isoquinolin-7-ylamino]-pyrimidin-4-ylamino}-N-methyl-benzamide] | < 8.00
19 | NS(=O)(=O)N1CCc2ccc(Nc3ncc(C(F)(F)F)c(NC4CC4)n3)cc2C1 [Compound A76] | 8.00 to 9.00
20 | CSCCN1CCc2ccc(Nc3ncc(C(F)(F)F)c(NC4CC4)n3)cc2C1 [Compound A81] | > 9.00
21 | CNC(=O)c1ccccc1Nc1nc(Nc2ccc3c(c2)CN(Cc2ccncn2)CC3)ncc1Br [Compound A160, 2-[5-Bromo-2-(2-pyrimidin-4-ylmethyl-1,2,3,4-tetrahydro-isoquinolin-7-ylamino)-pyrimidin-4-ylamino]-N-methyl-benzamide] | < 8.00
22 | FC(F)(F)c1cnc(Nc2ccc3c(c2)CCN(CC2CCCN2)C3)nc1NC1CC1 (stereo not shown) [Compound A40] | 8.00 to 9.00
23 | NCC(=O)Nc1cnc(Nc2ccc3c(c2)CCNC3)nc1NC1CC1 [Compound A26] | < 8.00
24 | FC(F)(F)c1cnc(Nc2ccc3c(c2)CN(Cc2ccncc2)CC3)nc1NC1CC1 [Compound A82] | > 9.00
25 | N[C@@H](CO)C(=O)N1CCc2cc(Nc3ncc(C(F)(F)F)c(NC4CC4)n3)ccc2C1 (stereo in doubt) [Compound A57] | 8.00 to 9.00
26 | CNC(=O)c1ccccc1Nc1nc(Nc2ccc3c(c2)CCN(CC(C)O)C3)ncc1Br (stereo not shown) [Compound A138, 2-{5-Bromo-2-[2-(2-hydroxy-propyl)-1,2,3,4-tetrahydro-isoquinolin-6-ylamino]-pyrimidin-4-ylamino}-N-methyl-benzamide] | < 8.00
27 | CCNC(=O)N1CCc2cc(Nc3ncc(C(F)(F)F)c(NC4CC4)n3)ccc2C1 [Compound A6] | 8.00 to 9.00
28 | COC(=O)N1CCc2cc(Nc3ncc(C(F)(F)F)c(NC4CC4)n3)ccc2C1 [Compound A4] | 8.00 to 9.00
29 | CN(C)c1ccc(CN2CCc3cc(Nc4ncc(C(F)(F)F)c(NC5CC5)n4)ccc3C2)cc1 [Compound A71] | > 9.00
30 | NC(=O)N1CCc2cc(Nc3ncc(C(F)(F)F)c(NC4CC4)n3)ccc2C1 [Compound A14] | 8.00 to 9.00
31 | OCC(O)CN1CCc2cc(Nc3ncc(C(F)(F)F)c(NC4CC4)n3)ccc2C1 (stereo not shown) [Compound A13] | < 8.00
32 | CC(C)(C)OC(=O)N1CCc2cc(Nc3ncc([N+](=O)O)c(NC4CC4)n3)ccc2C1 [Compound A21] | < 8.00

Same assay, conditions: Table 2

Row | Compound | pIC50
33 | COc1cc(Nc2ncc(Br)c(Oc3ccccc3C(=O)N(C)O)n2)cc(OC)c1OC [Compound B15] | > 7.00
34 | COc1cc(Nc2ncc(Br)c(Oc3ccccc3C(=O)NCCC#N)n2)cc(OC)c1OC [Compound B10] | < 6.00
35 | CNC(=O)c1ccccc1Oc1nc(Nc2cc(F)c(F)c(F)c2)ncc1Br [Compound B1] | < 6.00

Now from value to compound:

Row | pIC50 | Compound
36 | < 6.00 | COC(=O)c1ccccc1Oc1nc(Nc2cccc(OC(F)F)c2)ncc1Br [Compound B29]
37 | < 6.00 | COC(=O)c1ccccc1Oc1nc(Nc2ccc(OC)cc2)ncc1Br [Compound B19]
38 | < 6.00 | COC(=O)c1ccccc1Oc1nc(Nc2cnc3[nH]ccc3c2)ncc1Br [Compound B18]
39 | 6.00 to 7.00 | COC(=O)c1ccccc1Oc1nc(Nc2ccc(N)cc2)ncc1Br [Compound B37]
40 | < 6.00 | COC(=O)c1ccccc1Oc1nc(Nc2ccc(N3CCNCC3)cc2)ncc1Br [Compound B47]
41 | < 6.00 | COC(=O)c1ccc(Nc2ncc(Br)c(Oc3ccccc3C(=O)OC)n2)cc1 [Compound B43]
42 | < 6.00 | COC(=O)c1ccccc1Oc1nc(Nc2ccc3[nH]cnc3c2)ncc1Br [Compound B22]
43 | < 6.00 | COC(=O)c1ccccc1Oc1nc(Nc2ccc(OC)c(OC)c2)ncc1Br [Compound B17]

Same assay, conditions: Table 3

Row | Compound | pIC50
44 | CN(C)c1ccc(Nc2ncc(Br)c(Nc3ccccc3CO)n2)cc1 [Compound C11] | > 8.30
45 | CNC(=O)c1ccccc1Nc1nc(Nc2cccc(OC(F)(F)F)c2)ncc1Br [Compound E21, 2-((5-Bromo-2-((3-(trifluoromethoxy)phenyl)amino)pyrimidin-4-yl)amino)-N-methylbenzamide] | 7.00 to 8.30
46 | CNC(=O)c1ccccc1Nc1nc(Nc2cc(OC)cc(OC)c2)ncc1Br [Compound E17, 2-((5-Bromo-2-((3,5-dimethoxyphenyl)amino)pyrimidin-4-yl)amino)-N-methylbenzamide] | 7.00 to 8.30
47 | COC(=O)c1ccccc1Nc1nc(Nc2cc(OC)c(OC)c(OC)c2)ncc1Br [Compound E1] | > 8.30
48 | OCc1ccccc1Nc1nc(Nc2ccccc2)ncc1Br [Compound C4] | < 7.00
49 | CNC(=O)c1cccc(Nc2nc(Nc3cc(OC)c(OC)c(OC)c3)ncc2Br)c1 [Compound E26, 3-((5-Bromo-2-((3,4,5-trimethoxyphenyl)amino)pyrimidin-4-yl)amino)-N-methylbenzamide] | < 7.00
50 | COc1cc(Nc2ncc(Br)c(Nc3ccccc3COCC(=O)N(C)C)n2)cc(OC)c1OC [Compound C19] | < 7.00
51 | COc1cc(Nc2ncc(Br)c(Nc3ccccc3CNC3CC3)n2)cc(OC)c1OC [Compound C24] | < 7.00
52 | CN(C)C1Cc2ccc(Nc3ncc(C(F)(F)F)c(NC4CC4)n3)cc2C1 (stereo not shown) [Compound D6] | > 8.30
